≈ marks a conversion by molar mass, not a printed value. Where two headings read alike, the source gives them in different places.
Columns and labels:
bacteria = experiment: Bacterial growth inhibition, broth microdilution (CLSI M07-A10); assay type: cell-based; conditions: for IC50: growth inhibition
Description: Assay: Broth microdilution by the method of: Clinical and Laboratory Standards Institute, Ed., Methods for dilution antimicrobial susceptibility tests for bacteria that grow aerobically: M07-A10; approved standard (Committee for Clinical Laboratory Standards, Wayne, PA, 10. ed., 2015), Documents/Clinical and Laboratory Standards Institute.

[1] = system: HUVEC (Human Umbilical Vein Endothelial Cells); experiment: Cytotoxicity, propidium iodide fluorescence, HuVEC cells; assay type: cell-based; design: key: % cytotoxicity relative to positive control (100% cell lysis); conditions: 24 h, relative to positive control (100% cell lysis)
Procedure: (§1) Assay: HUVEC (Human Umbilical Vein Endothelial Cells) and HeLa (cervical cancer cells) were seeded into 96-well culture plates at a density of 1.5×10^5 cells/ml in endothelial cell or DMEM growth medium, supplemented with 10% fetal bovine serum and no antibiotic. Cells were cultured for 24 h before assay setup. Compounds were diluted in the corresponding growth medium and tested in triplicate at 10× and 20× the minimum bacterial growth inhibitory concentrations. Growth media in the 96-well plate was aspirated off and replaced with media containing the test compounds or DMSO (0.5%, vol/vol). The plates were incubated at 37° C. in a 5% CO2 incubator for 24 h. A positive control sample was prepared by replacing media in designated wells with a solution containing a cell lysis reagent. Propidium iodide was then added at 5 μM/well and the plate was incubated for 10 minutes at room temperature. Fluorescence was then recorded using a SpectraMax i3 (Molecular Devices) at λex 535 nm/λem 617 nm. Cytotoxicity was determined by quantifying the fluorescence values for each compound relative to the positive control (100% cell lysis). For selected exemplified compounds, cytotoxicity against HeLa and HuVEC cells was measured at 10× and 20×MIC.

[2] = Solubility in growth medium of the transcription assay; assay type: physicochemical; design: key: *: poor solubility in test medium
[3] = system: HeLa (cervical cancer cells); experiment: Cytotoxicity, propidium iodide fluorescence, HeLa cells; assay type: cell-based, Human; design: key: % cytotoxicity relative to positive control (100% cell lysis); conditions: 24 h, relative to positive control (100% cell lysis)
Procedure: as §1

Plasma binding = assay type: in vitro ADME; conditions: for free compound: serum and plasma binding
CYP [4] = system: CYP
Serum binding = assay type: in vitro ADME
[5] = system: σ^E-mediated transcription; experiment: σ^E-mediated transcription inhibition, E. coli reporter assay; assay type: cell-based; conditions: Escherichia coli
Procedure: The selected exemplified compounds were tested for inhibition of σ^E-mediated transcription using an E. coli reporter assay according to the protocol described in U.S. Pat. No. 8,962,550, which is incorporated herein by reference.

CYP (isoform not given) = experiment: HLM CYP inhibition; conditions: human, human liver microsomes
CYP [6] = experiment: HLM CYP inhibition
[7] = Stability in human liver microsomes (intrinsic clearance)

Work on `Cc1cc(F)ccc1-c1cccc(Nc2ccncc2)n1` [Compound 2170] yielded an MIC (bacteria) of 14 µg/mL (≈ 50.1 µM) and an IC50 (bacteria) of 6.8 µg/mL (≈ 24.3 µM).
For `Cc1cc(F)ccc1-c1cccc(Nc2ccccc2)n1` [Compound 39704], the “Cytotoxicity at 10× MIC HuVEC” value [1] was 15, the “Cytotoxicity at 20× MIC HuVEC” value [1] was 21 and the “solubility in test medium” value [2] was “*”. For the same compound, the “Cytotoxicity at 10× MIC HeLa” value [3] was 11, the “Cytotoxicity at 20× MIC HeLa” value [3] was 11 and the “% plasma binding” value (Plasma binding) was 99.9%. The free compound (Plasma binding) was “no detectable free compound”, the “Human Liver Microsomes Intrinsic Clearance (CLint)” value was 5.38 mL/min/g liver and the “IC50 for CYP inhibition over the MIC” value (CYP [4]) was “more than 5 ×”. For the same compound, the “% serum binding” value (Serum binding) was 100%, the IC50 [5] was 11 µg/mL (≈ 39.5 µM) and the MIC (bacteria) was 1.7 to 3.5 µg/mL (≈ 6.11 to 12.6 µM). It also gave an IC50 (bacteria) of 0.9 to 2.8 µg/mL (≈ 3.23 to 10.1 µM) and an IC50 (CYP (isoform not given)) of 13.5 µM.
For `Cc1cc(F)ccc1-c1cc(Nc2ccccc2)ccn1` [Compound 39712], the MIC (bacteria) was 21 µg/mL (≈ 75.5 µM).
With `Cc1cc(F)ccc1-c1cccc(NS(=O)(=O)c2ccccc2)n1` [Compound 39705] the MIC (bacteria) was 34 µg/mL (≈ 99.3 µM) and the IC50 (bacteria) was 16 µg/mL (≈ 46.7 µM).
Work on `Cc1cc(F)ccc1-c1cccc(-c2cn(C3CCSCC3)nn2)c1` [Compound 39735] yielded an MIC (bacteria) of 35 µg/mL (≈ 99 µM).
Compound `c1ccc(COc2ccc(-c3cccc(Nc4ccncc4)n3)cc2)cc1` [Compound 39718] has an MIC (bacteria) of 35 µg/mL (≈ 99 µM).
For `Cc1cc(F)ccc1-c1cc(NC(=O)c2ccco2)ccn1` [Compound 39717], the MIC (bacteria) was 50 µg/mL (≈ 169 µM).
In the case of `Cc1cc(F)ccc1-c1cccc(-c2cn(-c3ccncc3)nn2)c1` [Compound 39724], the “Cytotoxicity at 10× MIC HuVEC” value [1] is reported as 16, the “Cytotoxicity at 20× MIC HuVEC” value [1] is reported as 19 and the “Cytotoxicity at 10× MIC HeLa” value [3] is reported as 11. The “Cytotoxicity at 20× MIC HeLa” value [3] was 14, the “% plasma binding” value (Plasma binding) was 99.5% and the “Human Liver Microsomes Intrinsic Clearance (CLint)” value was 0.37 mL/min/g liver. The “% serum binding” value (Serum binding) was 94.6%, the IC50 [5] was 6.6 µg/mL (≈ 20 µM) and the MIC (bacteria) was 3.3 to 4.1 µg/mL (≈ 9.99 to 12.4 µM). For the same compound, the IC50 (bacteria) was 1.6 to 2.3 µg/mL (≈ 4.84 to 6.96 µM) and the IC50 (CYP (isoform not given)) was 3.55 µM.
Compound `Cc1cc(F)ccc1-c1cccc(Nc2ccc(C#C[Si](C)(C)C)cc2)n1` [Compound 39715] has an MIC (bacteria) of 75 µg/mL (≈ 200 µM).
`Cc1cc(F)ccc1-c1cccc(NC(=O)c2ccco2)c1` [Compound 39733] showed an MIC (bacteria) of 29 µg/mL (≈ 98.2 µM) and an IC50 (bacteria) of 16 µg/mL (≈ 54.2 µM).
`Cc1cc(F)ccc1-c1ccc(-c2cn(-c3ccncc3)nn2)cc1` [Compound 39730] showed an MIC (bacteria) of 66 µg/mL (≈ 200 µM).
For `Cc1cc(F)ccc1-c1cccc(NC(=O)c2ccccc2)c1` [Compound 39731], the “Cytotoxicity at 10× MIC HuVEC” value [1] was 14, the “Cytotoxicity at 20× MIC HuVEC” value [1] was 14 and the “solubility in test medium” value [2] was “*”. For the same compound, the “Cytotoxicity at 10× MIC HeLa” value [3] was 8, the “Cytotoxicity at 20× MIC HeLa” value [3] was 10 and the “% plasma binding” value (Plasma binding) was 99.8%. The “Human Liver Microsomes Intrinsic Clearance (CLint)” value was 2.12 mL/min/g liver, the “% serum binding” value (Serum binding) was 99.7% and the IC50 [5] was roughly 60 µg/mL (≈ 196 µM). The MIC (bacteria) was 7.6 µg/mL (≈ 24.9 µM), the IC50 (bacteria) was 1.6 to 3.4 µg/mL (≈ 5.24 to 11.1 µM) and the IC50 (CYP (isoform not given)) was greater than 33 µM. The “inhibition of CYP” value (CYP [6]) was “no detectable inhibition”.
In the case of `Cc1cc([N+](=O)[O-])ccc1-c1cccc(Nc2ccncc2)n1` [Compound 39709], the MIC (bacteria) is reported as 117 µg/mL (≈ 382 µM).
Compound `Cc1cc(F)ccc1-c1cccc(Nc2ccc(S(C)(=O)=O)cc2)c1` [Compound 39734] has an MIC (bacteria) of 28 µg/mL (≈ 78.8 µM) and an IC50 (bacteria) of 22 µg/mL (≈ 61.9 µM).
For `c1ccc(-c2cccc(Nc3ccncc3)n2)cc1` [Compound 39711], the MIC (bacteria) was 6.2 µg/mL (≈ 25.1 µM) and the IC50 (bacteria) was 3.7 µg/mL (≈ 15 µM).
In the case of `Cc1cc(F)ccc1-c1cccc(Nc2ccc([N+](=O)[O-])c3nonc23)n1` [Compound 39722], the MIC (bacteria) is reported as 73 µg/mL (≈ 200 µM).
For `Cc1cc(F)ccc1-c1cccc(NC(=O)c2ccccc2)n1` [Compound 39721], the MIC (bacteria) was 20 µg/mL (≈ 65.3 µM).
For `O=C(Nc1cccc(-c2ccccc2)c1)c1cccc(C(F)(F)F)c1` [Compound 39751], the “Cytotoxicity at 10× MIC HuVEC” value [1] was 17, the “Cytotoxicity at 20× MIC HuVEC” value [1] was 14 and the “Cytotoxicity at 10× MIC HeLa” value [3] was 9. For the same compound, the “Cytotoxicity at 20× MIC HeLa” value [3] was 7, the “% plasma binding” value (Plasma binding) was 99.9% and the free compound (Plasma binding) was “no detectable free compound”. The “Human Liver Microsomes Intrinsic Clearance (CLint)” value was 4.35 mL/min/g liver, the “% serum binding” value (Serum binding) was 99.9% and the IC50 [5] was 4.3 µg/mL (≈ 12.6 µM). The MIC (bacteria) was 8.5 µg/mL (≈ 24.9 µM), the IC50 (bacteria) was 4.6 µg/mL (≈ 13.5 µM) and the IC50 (CYP (isoform not given)) was greater than 33 µM. For the same compound, the “inhibition of CYP” value (CYP [6]) was “no detectable inhibition”.
Work on `Cc1cc(F)ccc1-c1cccc(-c2cn(-c3cccc4ncccc34)nn2)c1` [Compound 39739] yielded an MIC (bacteria) of 38 µg/mL (≈ 99.9 µM).
Compound `Cc1cc(F)ccc1-c1cccc(Nc2ccncc2)c1` [Compound 39744] has an MIC (bacteria) of 14 µg/mL (≈ 50.3 µM).
With `Cc1cc(F)ccc1-c1cccc(NC(=O)c2cccc(Cl)c2)c1` [Compound 39732] the MIC (bacteria) was 8.5 µg/mL (≈ 25 µM) and the IC50 (bacteria) was 5.9 µg/mL (≈ 17.4 µM).
`c1cc(Nc2ccncc2)nc(C2CCCCC2)c1` [Compound 39710] gave an MIC (bacteria) of 51 µg/mL (≈ 201 µM).
`Cc1cc(F)ccc1-c1cccc(Nc2ccc(N=[N+]=[N-])cc2)n1` [Compound 39714] showed an MIC (bacteria) of 64 µg/mL (≈ 200 µM).
With `c1ccc(-c2cccc(-c3cn(-c4ccncc4)nn3)c2)cc1` [Compound 39748] the “Cytotoxicity at 10× MIC HuVEC” value [1] was 15, the “Cytotoxicity at 20× MIC HuVEC” value [1] was 21 and the “Cytotoxicity at 10× MIC HeLa” value [3] was 14. For the same compound, the “Cytotoxicity at 20× MIC HeLa” value [3] was 14, the “% plasma binding” value (Plasma binding) was 99.7% and the “Human Liver Microsomes Intrinsic Clearance (CLint)” value was 1.28 mL/min/g liver. For the same compound, the “% serum binding” value (Serum binding) was 99.7%, the IC50 [5] was 2.6 µg/mL (≈ 8.71 µM) and the MIC (bacteria) was 7.6 µg/mL (≈ 25.5 µM). For the same compound, the IC50 (bacteria) was 2.6 µg/mL (≈ 8.71 µM) and the IC50 (CYP (isoform not given)) was 1.48 µM.
In the case of `Cc1cc(F)ccc1-c1cccc(NC(=O)c2cccc(Cl)c2)n1` [Compound 39720], the “Cytotoxicity at 10× MIC HuVEC” value [1] is reported as 10, the “Cytotoxicity at 20× MIC HuVEC” value [1] is reported as 10 and the “solubility in test medium” value [2] is reported as “*”. For the same compound, the “Cytotoxicity at 10× MIC HeLa” value [3] was 8, the “Cytotoxicity at 20× MIC HeLa” value [3] was 8 and the “Human Liver Microsomes Intrinsic Clearance (CLint)” value was 1.51 mL/min/g liver. It also gave an IC50 [5] of roughly 34.1 µg/mL (≈ 100 µM), an MIC (bacteria) of 4.3 µg/mL (≈ 12.6 µM) and an IC50 (bacteria) of 2.4 µg/mL (≈ 7.04 µM).
In the case of `Cc1ncc2n1-c1ccc(Cl)cc1C(c1ccccc1F)=NC2` [Midazolam control, Midazolam], the “Human Liver Microsomes Intrinsic Clearance (CLint)” value [7] is reported as 9.04 mL/min/g liver.
For `Cc1cc(F)ccc1-c1cccc(NS(=O)(=O)c2cccc3c(N(C)C)cccc23)n1` [Compound 39713], the MIC (bacteria) was 87 µg/mL (≈ 200 µM).
